The text below walks through data of the METLIN SMRT retention time set (Domingo-Almenara et al. 2019).

The data set in a line: gradient 5% acetonitrile 3 min, to 50% in 2 min, to 85% in 15 min, held 3 min, 100 µL/min. The conditions noted are these: column: Zorbax Extend-C18 2.1 x 50 mm; eluents: water / acetonitrile, 0.1% formic acid. In a few lines:
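Each retention time is based on an adduct peak selected computationally and verified by manual inspection. Measurements used HPLC–quadrupole time-of-flight mass spectrometry in positive and negative ionization mode on mixtures of ~100 pure standards. Chromatography ran on a Zorbax Extend-C18 column (2.1 × 50 mm, 1.8 μm) at 100 μL/min with water and acetonitrile, each containing 0.1% formic acid, and dead and dwell volumes of 40 μL and 900 μL.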
In the case of `Cc1cc(NC(=O)c2ccccc2-c2nc(-c3ccccc3)no2)no1`, the RP-LC retention time is 925 s. To `COc1ccc(C(O)Cn2ccn3nc(-c4cc(C)ccc4C)cc3c2=O)cc1` (stereo not drawn) belongs 949 s; to `NC(C(=O)N[C@@H]1C(=O)N2C(C(=O)O)=C(Cl)CS[C@H]12)c1ccccc1` (stereo partly drawn), 563 s; to `Cc1ccc(CNC(=O)CN2C(=O)CCn3nc(-c4cn(C)c5ccccc45)cc32)o1`, 806 s. To `CC(C)(C)c1ccc(C(=O)NC2CCN(c3cc(-c4ccc(Cl)cc4)[nH]n3)C2)cc1` (stereo not drawn) belongs 976 s; to `COc1ccc(-c2nc(CS(=O)(=O)c3ccc(C)cc3)no2)c(C)c1`, 1010 s.

`COCCNC(=O)CSc1nc(-c2ccc(F)cc2)[nH]c1-c1ccccc1`: the RP-LC retention time worked out at 624 s. To `COc1ccc(Nc2c(C(=O)N3CCCC(C)C3)cnc3nc(C)ccc23)cc1OC` (stereo not drawn) belongs 610 s; to `O=C(NCc1ccccc1F)C1=C2CCCN2c2ccc(F)cc2S1(=O)=O`, 868 s.

Compound `CCOc1ccc(-c2nn3c(CSc4ccccc4)nnc3s2)cc1OC` yielded an RP-LC retention time of 987 s. Take `CCNC(=O)c1cc(C)nc2c(C)cc(C)cc12`: the RP-LC retention time came to 594 s.

`COC(=O)c1cn(CC(=O)Nc2cc(Cl)ccc2OC)c2nc(C)ccc2c1=O` registered an RP-LC retention time of 780 s.

In turn, `CCc1onc(C)c1C1CCCN1C(=O)Nc1ccc(Cl)cc1` (stereo not drawn) registered an RP-LC retention time of 873 s. Regarding `CC(C)c1ccc(OCC(=O)NCCS(=O)(=O)N2CCN(c3ncccn3)CC2)cc1`, the RP-LC retention time amounted to 856 s. To `COc1cccc(S(=O)(=O)N2CCC(n3cnnc3C3CC3)CC2)c1` belongs 695 s; to `CCc1noc(NC(C)=O)c1-c1ccc(OC)c(S(=O)(=O)Nc2ccc(F)cc2C)c1`, 796 s.

`CCn1cc(-c2nc(C)c(C(=O)N3CCc4ccccc43)s2)c2cccnc21`: the RP-LC retention time was 1030 s. `COCCn1cc(CCNC(=O)Nc2cccc(Br)c2)c2cccnc21` had an RP-LC retention time of 783 s. Compound `CN1CCCC1c1nc(C2CN(C(=O)c3ccn[nH]3)C2)no1` (stereo not drawn) had an RP-LC retention time of 506 s. For `CCOC(=O)CNC(=O)Cn1nc2n(c(=O)c1=O)CCN2c1ccccc1`, the RP-LC retention time came out at 626 s.

Compound `COc1cc2c(cc1OC)C1C(C(=O)NCCCN3CCCCCC3)c3ccccc3C(=O)N1CC2` (stereo not drawn) gave an RP-LC retention time of 617 s.

`C[C@H]1CN(C(=O)c2nn(C)c3ccccc23)C[C@@H]1c1nc(-c2cccnc2)no1` showed an RP-LC retention time of 862 s. In the case of `Cc1ccc(NC(=O)N2CCCC2c2nc(-c3ccccc3)no2)c(Cl)c1` (stereo not drawn), the RP-LC retention time amounted to 1100 s. To `Cc1nc(N2CCOCC2)c2c(C(=O)Nc3ccc(C)c(C)c3)c(C)oc2n1` belongs 882 s; to `CCc1noc2nc(C)n(CC(=O)NCc3ccc(F)cc3)c(=O)c12`, 797 s.

As to `Cc1cc(C)cc(-n2ccc(=O)c(-c3nc(-c4ccc5c(c4)OCO5)no3)n2)c1`, the RP-LC retention time is 996 s. `COc1ccc(-n2ccn3cc(-c4ccc(F)cc4F)nc3c2=O)cc1`: the RP-LC retention time was 716 s. To `Cn1ncc2c(N3CCSCC3)nc(C(=O)NCc3ccc(F)cc3)nc21` belongs 823 s; to `Fc1ccccc1-c1nc(-c2ccc3c(c2)ncn3CCN2CCOCC2)no1`, 627 s; to `COC(=O)c1sccc1NC(=O)Cn1c(C)cc(C)c(-c2nc(-c3ccc(F)cc3)no2)c1=O`, 1070 s.

Consider `CCc1cccc(CC)c1NC(=O)c1cccc(OC)c1`, for which the RP-LC retention time is 875 s.

`COc1ccc(OCc2noc(CNC(=O)c3ccccc3Cl)n2)cc1`: the RP-LC retention time is 793 s. Take `Cc1ccccc1CNC(=O)c1ccc2c(c1)ncn2CCN1CCCC1`: the RP-LC retention time worked out at 582 s. `O=C(c1cccc(Br)c1)N1CCc2nc(-c3ccc(F)cc3)ncc2C1` showed an RP-LC retention time of 1010 s.

`CC(C)c1ccc(S(=O)(=O)N2CCC(C)(C(=O)NCc3ccc(F)cc3)CC2)cc1` returned an RP-LC retention time of 1050 s. To `Cc1ccc(S(=O)(=O)N2CCCC2c2nc(-c3ccc(F)cc3)no2)cc1Cl` (stereo not drawn) belongs 1230 s. `O=C(NCCC1CCN(C(=O)Nc2ccccc2F)CC1)c1ccoc1` gave an RP-LC retention time of 713 s. Take `Cc1cccc(NS(=O)(=O)c2ccc(-c3nnc(C4CCC4)o3)o2)c1`: the RP-LC retention time worked out at 924 s. On to `COc1ccc(CCNC(=O)[C@@H]2[C@H](c3cc(OC)c(OC)c(OC)c3)c3cc4c(cc3[C@H](O)[C@H]2CO)OCO4)cc1OC`, for which the RP-LC retention time was found to be 699 s. Turning to `O=C([C@@H]1C[C@H](F)CN1S(=O)(=O)c1ccc(F)c(Cl)c1)N1CCCCC1`, the RP-LC retention time worked out at 875 s.

For `O=C(CSC1=Nc2ccccc2N=C(c2ccc(F)cc2)C1)NC1CCCC1`, the RP-LC retention time was 1130 s. As for `Cc1nn(CC(=O)N2CCc3ccccc32)c(=O)c2nn(-c3ccccc3)c(C)c12`, the RP-LC retention time was found to be 1050 s. `Cc1cnc(C2CC2)n1C1CCN(C(=O)C2(c3ccccc3)CC2)CC1` had an RP-LC retention time of 636 s. To `Cc1ccc(-c2ccc3nn(Cc4nc(-c5ccc(Br)cc5)no4)c(=O)n3n2)cc1` belongs 1100 s; to `COc1ccccc1NC(=O)N1c2ccccc2NC2=C(C(=O)CCC2)C1c1ccco1` (stereo not drawn), 830 s; to `CCOC(=O)C1CCc2sc(NC(=O)CCn3cnc4ccccc4c3=O)nc21` (stereo not drawn), 690 s. In turn, `CN1C(=O)c2cc(C(=O)NC3CCCCC3)nn2CC1(C)C(=O)NCc1ccc(F)cc1` (stereo not drawn) registered an RP-LC retention time of 776 s. Compound `CCOC(=O)C1=C(CN(CC)Cc2ccccc2)NC(=O)NC1c1ccc(F)cc1` (stereo not drawn) displayed an RP-LC retention time of 696 s. As for `Cn1ccc2cc(CCC(=O)NCc3ccncc3)ccc21`, the RP-LC retention time stood at 596 s.

The compound `CCc1ccc(NC(=O)N2CCc3c(c(-c4nc(C5CC5)no4)nn3C)C2)cc1` displayed an RP-LC retention time of 934 s. Turning to `CC(C)N(CC(=O)N1CCNCC1)C(=O)c1cccc(Br)c1`, the RP-LC retention time stood at 573 s.

Take `CCn1c(C(=O)N2CCN(c3ccc(OC)cc3)CC2)cc2sccc21`: the RP-LC retention time was 973 s.

On to `O=C(CSC1CCc2ccccc2NC1=O)Nc1ccc(Cl)cc1Cl` (stereo not drawn), for which the RP-LC retention time was determined as 930 s. Turning to `CCN1c2ccccc2C(=O)NC12CCN(C(=O)Nc1ccccc1F)CC2`, the RP-LC retention time was found to be 748 s.

`Cc1nnc(N2CCCC(C(=O)N3CCC4(CC3)OCCO4)C2)c2nn(-c3ccccc3)c(C)c12` (stereo not drawn) showed an RP-LC retention time of 660 s.

In the case of `COc1ccc(Cc2noc(Cc3nnc(-c4ccc(Cl)cc4)o3)n2)cc1`, the RP-LC retention time was 1010 s. To `O=C(c1cnccn1)N1CCCCC1c1nc(-c2ccc(F)cc2)no1` (stereo not drawn) belongs 918 s; to `CCn1ccc2cc(S(=O)(=O)N3CCC(C(=O)N4CCN(c5ncccn5)CC4)CC3)ccc21`, 880 s; to `CCOc1ccccc1C(=O)NC1(c2nc(-c3cccnc3)no2)CCCCC1`, 1050 s. Take `Cc1cccc2cc(-c3noc(C(C)C)n3)c(NCCc3ccc(S(N)(=O)=O)cc3)nc12`: the RP-LC retention time was determined as 1270 s. Consider `CCC(=O)Nc1ccc(-n2cnc(C(=O)NC3CCCCC3)c2)nc1`, for which the RP-LC retention time worked out at 731 s. `Cc1ccc(Sc2ccc(N3CCCC(C(=O)N4CCN(c5ccccn5)CC4)C3)nn2)cc1` (stereo not drawn) returned an RP-LC retention time of 659 s. In the case of `CSc1cccc(NC(=O)c2cnc(-c3ccc(C)cc3)nc2-c2ccncc2)c1`, the RP-LC retention time is 1010 s.

In turn, `CCc1ccc(-c2noc(Cn3cnc4c(cnn4-c4ccc(OC)cc4)c3=O)n2)cc1` came in with an RP-LC retention time of 1130 s. As to `CCn1cc(S(=O)(=O)N2CCCC2c2noc(CO)n2)cn1` (stereo not drawn), the RP-LC retention time was determined as 619 s.

The compound `O=C(c1ccccc1OCC1CCCNC1)N1CCCC1` (stereo not drawn) returned an RP-LC retention time of 596 s. In the case of `Cc1ccc(-c2nc(-c3ccc4nnc(C)n4c3)no2)c(C)c1`, the RP-LC retention time was 1140 s. `CCNC(=O)c1nc(C(=O)NCc2ccc(F)cc2F)cs1` gave an RP-LC retention time of 780 s.

As to `Cc1ccccc1-c1noc(C2CC(=O)N(c3ccc(Cl)cc3)C2)n1` (stereo not drawn), the RP-LC retention time is 1090 s. `CCN1CCN(C(=O)c2nc3ccccn3c2-c2ccc(Cl)cc2)CC1` registered an RP-LC retention time of 591 s. For `CCCNc1cc(N2CCC(CCC(=O)NCc3ccccc3)CC2)ncn1`, the RP-LC retention time is 666 s. Turning to `CC(CNC(=O)c1cc2n(n1)CC(C)(C(=O)NC1CCCCC1)N(C)C2=O)c1ccccc1` (stereo not drawn), the RP-LC retention time turned out to be 795 s. For the compound `Cc1c(C(=O)NC2CCS(=O)(=O)C2)nnn1-c1ccccc1F` (stereo not drawn), the RP-LC retention time was determined as 656 s. For the compound `COCc1cc(=O)n2c(n1)N(Cc1ccccc1F)CC2`, the RP-LC retention time was 660 s. `CO[C@H]1C(=O)N(C(C)C)[C@H]1C1CCN(C(=O)c2ccsc2)CC1` returned an RP-LC retention time of 693 s.

Take `Cn1ccc2cc(S(=O)(=O)N3CCC(C(=O)N4CCN(c5ccccc5)CC4)CC3)ccc21`: the RP-LC retention time came out at 963 s.

As for `COC(=O)c1c(-c2cccc(Cl)c2)noc1NCc1ccco1`, the RP-LC retention time amounted to 1060 s.

`O=C(c1ccc2c(c1)N(Cc1ccccc1)C(=O)CO2)N1CCc2ccccc21`: the RP-LC retention time came out at 980 s.
